Results reported in EP1228058B1, “BENZOPYRANYL GUANIDINE DERIVATIVES, PROCESS FOR PREPARATION THEREOF, AND PHARMACEUTICAL COMPOSITIONS CONTAINING THEM” (Dongbu Hannong Chemical Co., Ltd., priority 1999, dated 2001).

Assays:
RAW 264.7 cells = experiment: Inhibition of LPS-induced NO production (Griess reagent); assay type: cell-based, murine; conditions: Mus musculus, 24 hours; for inhibition at 33 µM: RAW264.7, 33 uM; for inhibition at 100 µM: RAW264.7, 100 uM
Experimental: Using RPMI1640 media supplemented with 10% fetal bovine serum (FBS), RAW 264.7 cells (obtained from American Type Culture Collection), a murine macrophage cell line, were cultured at 37 °C in a 5% CO2 incubator. The RAW264.7 cells were harvested and cell density was adjusted to 5x10^5/ml with a RPMI medium supplemented with 0.5% FBS and plated at 5x10^4 cells/well to 96-well plates, which were then cultured for 20 hr in a CO2 incubator. After removal of the media, the cells were pre-treated for 1 hour with fresh media containing 33 uM and 100 uM of test compounds. The test compounds were dissolved in DMSO and diluted to respective concentration in the media. In order to minimize DMSO effect on the nitric oxide formation by the RAW264.7 cells in the wells, the media were allowed to contain DMSO at a concentration of 0.1 % or less.
After completion of one hour pre-treatment, lipopolysaccharide (LPS, E. coli serotype 055:B5) was added to activate the cells, which were, then, maintained for 24 hours in a CO2 incubator. As a result of the activation of RAW264.7 cells with LPS, NO was formed. The NO released into the media was in a form of nitrite NO2^- and quantitatively measured using the Griess reagent. A control was treated only with vehicle instead of test compounds.
The inhibitory effects of the test compounds against NO production were determined as the reduction of NO quantity compared with that of the control group.

[1] = tested on: cerebral cortical neurons; experiment: Protective activity for neurons against iron-induced death (LDH release); assay type: cell-based; conditions: Rattus norvegicus, Cortical neurone, FeSO4 50 uM, 24 hours, LDH reduction, read-out: % Protection
Experimental: From the brains of 17-18 day-old rat embryos, cerebral cortical neurons were isolated and then, cultured at 37 °C for 7-9 days in a 5% CO2 incubator. The cortical cell cultures were washed twice with a minimum essential medium (MEM) to reduce the serum concentration to 0.2 % and pre-treated for 30 min with 10 uM and 30 uM of each of test compounds. For the experiments, the test compounds were dissolved in DMSO and diluted in a medium. At this time, the final concentration of DMSO was not allowed to exceed 0.2 %. For a control group, only vehicle was applied.
After the pre-treatment with test compounds or vehicle, FeSO4 was added to a final concentration of 50 uM, and the cultures were maintained for 24 hours in a CO2 incubator. During incubation, lactate dehydrogenase (LDH) was released into the medium upon neuronal death by the oxidative toxicity of iron. The extent of neuronal damage was assessed by measuring the amount of LDH secreted into the media. The protective effect of the compounds of interest on neurons was evaluated by calculating the LDH reduction rate of treatment group compared with that of the control group.

[2] = Acute oral toxicity test in rats; conditions: rat, in vivo, single oral dose in 0.5% methyl cellulose, read-out: lethal dose (LD50) for oral administration
How it was run: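 Six-week-old SPF SD rats, two per group, received a single oral dose of 1 g/kg suspended in 0.5% methyl cellulose (10 ml/kg). Survivors at the end of observation underwent haematology, serum chemistry, necropsy and histopathology of vital organs with macroscopic lesions.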

rat aorta = experiment: Vasodilation effects on isolated blood vessels of rats (methoxamine-constricted aortic rings); assay type: cell-based; conditions: isolated rat aorta constricted with methoxamine (3 uM); read-out: Vasodilation Activity (in Vitro, rat aorta) (IC50)

SMILES	inhibition at 33 µM (RAW 264.7 cells)	inhibition at 100 µM (RAW 264.7 cells)	inhibition at 10 µM [1]	inhibition at 30 µM [1]	LD50 [2]	IC50 (rat aorta)
COC(OC)[C@@]1(C)Oc2ccc([N+](=O)[O-])cc2[C@H](NC(=NC#N)NCc2ccccc2)[C@H]1O [Example 24, (2S, 3R, 4S)-N''-cyano-N-(6-nitro-3,4-dihydro-3-hydroxy-2-methyl-2-dimethoxymethyl-2H-benzopyran-4-yl)-N'-benzylguanidine]	16%	48%	29%	47%	> 1000 mg/kg	9.78 µM
COC(OC)[C@@]1(C)Oc2ccc([N+](=O)[O-])cc2[C@@H](NC(=NC#N)NCc2ccccc2)[C@@H]1O [Example 25, (2S, 3S, 4R)-N''-cyano-N-(6-nitro-3,4-dihydro-3-hydroxy-2-methyl-2-dimethoxymethyl-2H-benzopyran-4-yl)-N'-benzylguanidine]	39%	54%		69%	> 1000 mg/kg	> 30 µM
COC(OC)[C@@]1(C)Oc2ccc([N+](=O)[O-])cc2[C@H](NC(=NC#N)Nc2ccccc2Cl)[C@H]1O [Example 32, (2S, 3R, 4S)-N''-cyano-N-(6-nitro-3,4-dihydro-3-hydroxy-2-methyl-2-dimethoxymethyl-2H-benzopyran-4-yl)-N'-(2-chlorophenyl)guanidine]		83%			> 1000 mg/kg	3.57 µM
COC(OC)[C@@]1(C)Oc2ccc([N+](=O)[O-])cc2[C@@H](NC(=NC#N)NCc2ccccc2)[C@@H]1OC(C)=O [Example 38, (2S, 3S, 4R)-N''-cyano-N-(6-nitro-3,4-dihydro-3-acetoxy-2-methyl-2-dimethoxymethyl-2H-benzopyran-4-yl)-N'-benzylguanidine]	56%	85%	56%	78%	> 1000 mg/kg	24.5 µM
COC(OC)[C@@]1(C)Oc2ccc(N)cc2[C@@H](NC(=NC#N)NCc2ccccc2)[C@@H]1O [Example 40, (2S, 3S, 4R)-N''-cyano-N-(6 - amino-3,4-dihydro-3-hydroxy-2-methyl-2-dimethoxymethyl-2H-benzopyran-4-yl)-N'-benzylguanidine]		26%	45%	97%	> 1000 mg/kg	> 30 µM
